Source: BindingDB's records for doi:10.7270/Q2SX6GDH (n/a, 1996)

Experiments:
[1] = target: T1, 5-hydroxytryptamine receptor 1D (Sus scrofa, UniProt P79400); test: (§1) Compound was tested for its ability to displace [3H]-5-HT binding to 5-hydroxytryptamine 1D receptor recognition sites in pig caudate membranes
[2] = target: 5-hydroxytryptamine receptor 2A (Rattus norvegicus, UniProt P14842); test: ChEBML_2582
Protocol: Compound was tested for its ability to displace [3H]DOB from 5-hydroxytryptamine 2A receptor in rat cortex homogenates

[3] = target: T1, 5-hydroxytryptamine receptor 1D; test: ChEBML_1955; protocol: as §1
[4] = target: T2, 5-hydroxytryptamine receptor 3A/3B (Rattus norvegicus, UniProt P35563+Q9JJ16); test: (§2) Compound was tested for its ability to displace [3H]-Q-ICS 205-930 from 5-hydroxytryptamine 3 receptor in rat cortex homogenates
T2 sequence (P35563 whole entry): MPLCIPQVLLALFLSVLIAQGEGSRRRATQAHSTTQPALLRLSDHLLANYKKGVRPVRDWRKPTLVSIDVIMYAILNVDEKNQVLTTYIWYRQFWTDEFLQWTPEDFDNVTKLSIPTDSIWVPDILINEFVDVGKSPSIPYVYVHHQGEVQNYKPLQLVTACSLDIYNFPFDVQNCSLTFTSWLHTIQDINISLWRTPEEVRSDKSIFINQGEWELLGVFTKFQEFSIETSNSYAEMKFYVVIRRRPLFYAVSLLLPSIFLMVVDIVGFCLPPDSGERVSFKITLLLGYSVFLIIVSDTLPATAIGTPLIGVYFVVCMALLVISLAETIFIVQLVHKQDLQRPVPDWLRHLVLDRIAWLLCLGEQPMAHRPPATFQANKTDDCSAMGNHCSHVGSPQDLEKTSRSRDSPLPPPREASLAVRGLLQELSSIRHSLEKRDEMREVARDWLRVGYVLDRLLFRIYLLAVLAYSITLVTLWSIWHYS
T2 sequence (Q9JJ16 whole entry): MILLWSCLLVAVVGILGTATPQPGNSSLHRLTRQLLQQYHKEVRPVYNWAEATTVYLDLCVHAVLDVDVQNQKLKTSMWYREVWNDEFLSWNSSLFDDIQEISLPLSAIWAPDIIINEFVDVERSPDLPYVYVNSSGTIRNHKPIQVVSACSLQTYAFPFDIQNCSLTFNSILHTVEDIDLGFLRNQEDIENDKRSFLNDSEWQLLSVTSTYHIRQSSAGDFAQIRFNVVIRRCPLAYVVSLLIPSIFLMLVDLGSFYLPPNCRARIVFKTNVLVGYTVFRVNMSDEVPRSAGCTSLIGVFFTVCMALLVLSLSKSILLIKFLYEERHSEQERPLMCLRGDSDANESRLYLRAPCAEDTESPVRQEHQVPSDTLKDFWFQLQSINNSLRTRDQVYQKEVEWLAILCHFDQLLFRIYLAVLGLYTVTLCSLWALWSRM

[5] = Compound was tested for its ability to displace [3H]mesulergine from 5-hydroxytryptamine 2C receptor in pig cortex
[6] = Compound was tested for its ability to displace [3H]8-OH-DPAT from 5-hydroxytryptamine 1A receptor in pig cortex
[7] = Compound was tested for its ability to displace [3H]-5-HT binding to 5-hydroxytryptamine 1D receptor recognition sites in pig caudate membranes
[8] = target: T2, 5-hydroxytryptamine receptor 3A/3B; test: ChEBML_3165; protocol: as §2
[9] = target: T1, 5-hydroxytryptamine receptor 1D; test: Compound was tested for its ability to displace [125I]GTI binding to 5-hydroxytryptamine 1D receptor recognition sites in pig caudate membranes

T1 sequence (P79400 whole entry): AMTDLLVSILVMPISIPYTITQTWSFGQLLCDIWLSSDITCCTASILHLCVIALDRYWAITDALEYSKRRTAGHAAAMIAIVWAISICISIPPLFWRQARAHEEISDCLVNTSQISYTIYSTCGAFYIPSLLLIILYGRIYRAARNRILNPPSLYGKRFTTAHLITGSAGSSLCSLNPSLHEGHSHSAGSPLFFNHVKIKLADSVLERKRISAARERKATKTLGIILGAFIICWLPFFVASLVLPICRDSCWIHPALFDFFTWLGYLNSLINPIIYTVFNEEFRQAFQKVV
Sequence of 5-hydroxytryptamine receptor 2A (P14842 whole entry): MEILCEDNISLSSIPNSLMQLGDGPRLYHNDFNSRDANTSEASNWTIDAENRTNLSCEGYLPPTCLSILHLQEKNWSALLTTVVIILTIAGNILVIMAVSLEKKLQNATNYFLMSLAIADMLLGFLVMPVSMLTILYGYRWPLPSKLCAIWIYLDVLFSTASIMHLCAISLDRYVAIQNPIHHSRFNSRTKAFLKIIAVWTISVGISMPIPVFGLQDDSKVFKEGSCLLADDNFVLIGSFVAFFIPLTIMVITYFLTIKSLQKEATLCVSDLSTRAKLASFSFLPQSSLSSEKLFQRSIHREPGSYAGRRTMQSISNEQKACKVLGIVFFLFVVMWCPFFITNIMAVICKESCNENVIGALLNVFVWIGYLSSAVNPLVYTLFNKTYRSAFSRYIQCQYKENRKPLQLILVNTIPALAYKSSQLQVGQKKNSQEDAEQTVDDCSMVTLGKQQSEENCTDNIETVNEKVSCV

| Compound | IC50 [1] | IC50 [2] | IC50 [4] | IC50 [9] | IC50 [3] | IC50 [5] | IC50 [6] | IC50 [7] | IC50 [8] |
| --- | --- | --- | --- | --- | --- | --- | --- | --- | --- |
| CN(C)CCc1c[nH]c2ccc(-n3cncn3)cc12 | – | – | – | – | – | 0.5 µM | 0.025 µM | 0.02 µM | – |
| CN(C)CCc1c[nH]c2ccc(-n3cnnc3)cc12 [Dimethyl-[2-(5-[1,2,4]triazol-4-yl-1H-indol-3-yl)-ethyl]-amine] | 0.002 µM | > 10 µM | – | – | 0.00043 µM | – | – | – | > 10 µM |

More lines, main results first:

| IC50 [1] | IC50 [2] | IC50 [4] | IC50 [9] | Compound | IC50 [3] | IC50 [5] | IC50 [6] | IC50 [7] | IC50 [8] |
| --- | --- | --- | --- | --- | --- | --- | --- | --- | --- |
| 0.008 µM | > 10 µM | 2.7 µM | – | CN1CCC(c2c[nH]c3ccc(-n4cnnc4)cc23)CC1 | 0.0012 µM | – | – | – | – |
| 0.049 µM | 7.2 µM | 4.1 µM | 0.016 µM | CN(C)CCc1c[nH]c2ccc(Cn3cncn3)cc12 [N,N-dimethyl-2-[5-(1H-1,2,4-triazol-1-ylmethyl)-1H-indol-3-yl]ethanamine] | – | – | – | – | – |
| – | – | > 10 µM | – | CNS(=O)(=O)Cc1ccc2[nH]cc(CCN(C)C)c2c1 [Sumax] | – | – | – | – | – |
